From US20200239547A1, “ANTICANCER PEPTIDES” (IDP DISCOVERY PHARMA, S.L., priority 2017, published 2020)
Starred links: 1 amine or outer side, 2 acyl side, 3 side chain; linkers in the order of their positions; H or OH if unused. Positions of bridges follow the written chain, without caps; N, C: chain ends. Non-standard residues stand in square brackets, D forms with d. Residues, ends and D or L forms follow the SMILES beside them. No end group written: not given here. ξ: configuration not given here. ξαMeNle(6-ylidene) = CC(CCCC=[*:3])(N[*:1])C(=O)[*:2]; X1 = CC(CCCCCCC=[*:3])(N[*:1])C(=O)[*:2]; R8 = C=CCCCCCC[C@@](C)(N)C(=O)O; S5 = C=CCCC[C@](C)(N)C(=O)O

Key:
[1] = target: MCF-7, epithelial (breast cancer)
Method: MCF-7, epithelial (breast cancer), ECACC: 86012803
(§6) Cell line MCF-7 was cultured in incubator under CO2 (6%) at 37° C. in DMEM high glucose (Dulbecco's Modified Eagle Solution, Gibco-BRL 31966-21) medium with 10% fetal bovine serum inactivated (FBS) (Gibco-BRL 10106-169). Cell lines HL-60, RPMI and U266 were cultured in incubator at 37° C. in RPMI-1640 (Sigma R8758) medium with 10% of fetal bovine serum inactivated (FBS) and 2 mM glutamine (Sigma G7513).
(§7) During the amplification step and the assays adherent cells were rinsed with DPBS (Dulbecco's Phosphate Buffered Saline, Sigma D1283) three times and afterward treated for 5 minutes with trypsin ([0.5 g/ml]/EDTA [0.2 g/ml]) (Gibco-BRL, 15400054) in solution of DPBS at 37° C., and, once detached, transferred in the culturing medium. No-adherent cells were centrifuged and transferred in the culturing medium. Cells were counted in a Neubauer chamber after labelling with Tripan-Blue.
(§8) MTT: 1. Stock solution of MTT (475989 Calbiochem) was 5 mg/ml in PBS 1×. As negative control (experiment noise) 3 wells were treated with 20 μl/well of a solution of SDS 10% in H2O. The same control was used for Alamar Blue/Hexosaminidase. 10 μl/well of MTT solution were added and the plate was incubated for 3-4 hr. The medium was discarded and 100 μl of extracting buffer (PBS 1×, 15% SDS, 50% Na N,N-Dimethylformamide, pH 4.7) were added to each well. Plates were incubated for 16h at room temperature under orbital shaking. Absorbance at 570 nm was finally measured.
(§9) Alamar Blue: 10 μl Alamar Blue solution was added to each well and the plates were incubated for 4 in the incubator. Fluorescence ratio at 535/590 (excitation/emission) was measured in Cytofluor (Millipore) fluorimeter. Blank control was determined by lysis of untreated cells with con 2% of Triton X100, right before adding Alamar Blue solution.
(§10) Hexosaminidase activity test: after Alamar Blue lecture, medium was discarded and plates were rinsed once with PBS. 60 μl hexosaminidase substrate (p-nitrophenol-N-acetyl-beta-D-glucosamide 7.5 mM [Sigma N-9376], sodium citrate 0.1 M, pH 5.0, 0.25% Triton X-100) was added to each well and the plates were incubated at 37° C. for 2-5 h, according to the cell type (hexosaminidase activity changes according to the cell type). […] Blank control was the same as described before.
(§11) Data analysis was performed calculating the percentage of cell viability normalized vs. the values of negative control, which was considered equal to 100%. The dose/response curve was fitted through the sigmoidal equation dose-response (variable slope) and the ECK values were calculated as follow:

[2] = system: HL-60, promyeloblast (acute myelocytic leukemia, AML)
Method: HL-60, promyeloblast (acute myelocytic leukemia, AML), ECACC: 98070106
as §6, §7, §8, §9, §10, §11

[3] = system: RPMI, lymphoblast (myeloma)
Method: RPMI, lymphoblast (myeloma), ATCC® CCL155™
Cell lines HL-60, RPMI and U266 were cultured in incubator at 37° C. in RPMI-1640 (Sigma R8758) medium with 10% of fetal bovine serum inactivated (FBS) and 2 mM glutamine (Sigma G7513).
as §7, §8, §9, §10, §11

[4] = system: U266, lymphoblast (myeloma)
Method: U266, lymphoblast (myeloma), ATCC® TIB196™
as §6, §7, §8, §9, §10, §11
Y=Bottom+(Top-Bottom)/(1+10̂{[(LogEC50-X)*HillSlope]},

[5] = system: SCLC cell lines; experiment: Viability assay, summary over SCLC cell lines; type: cell-based; conditions: summary in words of Table 3
Method: MCF-7 and NCl-H187 cells were seeded at a density of 5000 cells/well; NCl-H82 were seeded at a density of 2500 cells/well; HL-60, RPMI, U266 and NCl-H510A at 10000 cells/well in 100 μl of medium in 96 well plates. After 24 h, the compounds to be tested were added to calculate the dose/response curve at the starting concentration of 100 μM with serial dilutions (1:1). Controls are the untreated cells. Each experiment was performed in triplicate.
(§1) Cells were incubated during 48-72 h in incubator under CO2 atmosphere at 37° C. Cell viability was measured by means of MTT (3-(4,5-dimethylthiazol-2-yl)-2,5-diphenyltetrazolium bromide) assay, Alamar Blue® (Biosource DAL1100) and Hexosaminidase activity test, consecutively, following manufacturer instructions.
Data analysis was performed calculating the percentage of cell viability normalized vs. the values of negative control, which was considered equal to 100%. The dose/response curve was fitted through the sigmoidal equation dose-response (variable slope) and the […] values were calculated as follow: […]

[6] = system: NCl-H187, epithelial (small cell lung cancer, SCLC); experiment: Viability assay in NCl-H187; type: cell-based; conditions: H187 cell line, 48-72 h incubation
Method: NCl-H187, epithelial (small cell lung cancer, SCLC), ATCC-CRL-5804
(§2) Cell lines NCl-H82, NCl-H187 were cultured in incubator at 37° C. in RPMI-1640 (Sigma R8758) medium with 10% of fetal bovine serum inactivated (FBS) and 2 mM glutamine (Sigma G7513). Cell line NCl-H510A was cultured in incubator in F12K medium with 10% of fetal bovine serum inactivated (FBS).
(§3) During the amplification step and the assays adherent cells were rinsed with DPBS (Dulbecco's Phosphate Buffered Saline, Sigma D1283) three times and afterward treated for 5 minutes with trypsin ([…]) (Gibco-BRL, 15400054) in solution of DPBS at 37° C., and, once detached, transferred in the culturing medium. […] Cells were counted in a Neubauer chamber after labelling with Tripan-Blue. […]
as §1
(§4) MTT: 1. […] Absorbance at 570 nm was finally measured.
(§5) Alamar Blue: 10 μl Alamar Blue solution was added to each well and the plates were incubated for […] in the incubator. Fluorescence ratio at 535/590 (excitation/emission) was measured in Cytofluor (Millipore) fluorimeter. […]

[7] = system: NCl-H82, epithelial (small cell lung cancer, SCLC); experiment: Viability assay in NCl-H82; type: cell-based; conditions: H82 cell line, 48-72 h incubation
Method: NCl-H82, epithelial (small cell lung cancer, SCLC), ATCC-CRL-5811
as §2, §3, §1, §4, §5

[8] = system: NCl-H510A, epithelial (small cell lung cancer, SCLC); experiment: Viability assay in NCl-H510A; type: cell-based; conditions: H510A cell line, 48-72 h incubation
Method: NCl-510A, epithelial (small cell lung cancer, SCLC), ATCC-HBT-124
as §2, §3, §1, §4, §5

Molecule | EC50 [1] [µM] | EC50 [2] [µM] | EC50 [3] [µM] | activity in RPMI cell lines ([3]; summary in words of Table 2) | EC50 [4] [µM] | anti-cancer activity in SCLC cell lines [5] | EC50 [6] [µM] | EC50 [7] [µM] | EC50 [8] [µM]
RKRRNDLRSRFLALRDQ-NH2 (C-terminus assumed) [IDP-wtL05, Arg-Lys-Arg-Arg-Asn-Asp-Leu-Arg-Ser-Arg-Phe-Leu-Ala-Leu-Arg-Asp-Gln] | > 100 | > 100 | ~10 | shows activity | > 100 | – | – | – | –
CC(C)C[C@H](NC(=O)[C@H](C)NC(=O)[C@H](CC(C)C)NC(=O)C1(C)CCCC=CCCCCCCC(C)(NC(=O)[C@H](CCCNC(=N)N)NC(=O)[C@H](CCCCN)NC(=O)[C@@H](N)CCCNC(=N)N)C(=O)N[C@@H](CC(N)=O)C(=O)N[C@@H](CC(=O)O)C(=O)N[C@@H](CC(C)C)C(=O)N[C@@H](CCCNC(=N)N)C(=O)N[C@@H](CO)C(=O)N[C@@H](CCCNC(=N)N)C(=O)N1)C(=O)N[C@@H](CCCNC(=N)N)C(=O)N[C@@H](CC(=O)O)C(=O)N[C@@H](CCC(N)=O)C(N)=O (stereo partly shown) [IDP-LS05, RKRXNDLRSRXLALRDQ] (H-RKR[X1]NDLRSR[ξαMeNle(6-ylidene)]LALRDQ-NH2; staple 4-11; N-terminus and C-terminus assumed) | > 100 | ~5 | ~6 | – | > 100 | – | – | – | –
CC(C)C[C@@H]1NC(=O)[C@H](C)NC(=O)[C@H](CCCCN)NC(=O)[C@H](CO)NC(=O)[C@H](CC(C)C)NC(=O)C(C)(NC(=O)[C@@H](NC(=O)[C@@H](NC(=O)[C@H](CCCCN)NC(=O)[C@@H]2CCCN2C(=O)[C@H](C)N)C(C)C)C(C)C)CCCCCCC=CCCCC(C)(C(=O)N[C@@H](CC(C)C)C(=O)N[C@@H](CCC(N)=O)C(=O)N[C@@H](C)C(N)=O)NC(=O)[C@H](CCC(=O)O)NC1=O (stereo partly shown) [IDP-LS16, APKVVXLSKALEXLQA] (H-APKVV[X1]LSKALE[ξαMeNle(6-ylidene)]LQA-NH2; staple 6-13; N-terminus and C-terminus assumed) | > 100 | > 100 | ~15 | – | ~10 | – | – | – | –
CC[C@H](C)[C@H](NC(=O)[C@H](CCCCN)NC(=O)[C@@H](NC(=O)[C@H](CCC(N)=O)NC(=O)[C@@H](N)CCCNC(=N)N)[C@@H](C)CC)C(=O)N[C@@H](Cc1c[nH]c2ccccc12)C(=O)N[C@@H](Cc1ccccc1)C(=O)N[C@@H](CCC(N)=O)C(=O)N[C@@H](CC(N)=O)C(=O)N[C@@H](CCCNC(=N)N)C(=O)N[C@@H](CCCNC(=N)N)C(=O)N[C@@H](CCSC)C(=O)N[C@@H](CCCCN)C(=O)N[C@@H](Cc1c[nH]c2ccccc12)C(=O)N[C@@H](CCCCN)C(=O)N[C@@H](CCCCN)C(=O)N[C@@H](CO)C(=O)N[C@@H](CCCCN)C(=O)N[C@@H](C)C(=O)N1CCC[C@H]1C(=O)N[C@@H](CCCCN)C(=O)N[C@H](C(=O)N[C@H](C(=O)N[C@H](C(=O)N[C@@H](CC(C)C)C(=O)N[C@@H](CO)C(=O)N[C@@H](CCCCN)C(=O)N[C@@H](C)C(=O)N[C@@H](CC(C)C)C(=O)N[C@@H](CCC(=O)O)C(=O)N[C@@H](Cc1ccc(O)cc1)C(=O)N[C@@H](CC(C)C)C(=O)N[C@@H](CCC(N)=O)C(=O)N[C@@H](C)C(N)=O)[C@@H](C)CC)C(C)C)C(C)C [IDP-LLCb02] | – | – | – | – | – | showed anti-cancer activity | – | – | –
CC(C)C[C@@H]1NC(=O)[C@H](C)NC(=O)[C@H](CC(C)C)NC(=O)[C@H](Cc2ccccc2)NC(=O)[C@H](CCCNC(=N)N)NC(=O)[C@H](CO)NC(=O)[C@](C)(NC(=O)[C@H](CC(C)C)NC(=O)[C@H](CC(=O)O)NC(=O)[C@H](CC(N)=O)NC(=O)[C@H](CCCNC(=N)N)NC(=O)[C@H](CCCNC(=N)N)NC(=O)[C@H](CCCCN)NC(=O)[C@@H](N)CCCNC(=N)N)CCCCCCC=CCCC[C@@](C)(C(=O)N[C@@H](CC(=O)O)C(=O)N[C@@H](CCC(N)=O)C(N)=O)NC1=O [IDP-LS13, RKRRNDLXSRFLALXDQ] (H-RKRRNDL[R8]SRFLAL[S5]DQ-NH2; staple 8-15; N-terminus and C-terminus assumed) | ~10 | ~7 | ~9 | – | ~10 | – | – | – | –
RRRRRRRRKRRNDLRSRFLALRDQ-NH2 [IDP-intwtL05] | > 100 | > 100 | > 100 | – | > 100 | – | – | – | –
CC[C@H](C)[C@H](NC(=O)[C@@H](NC(=O)[C@@H](NC(=O)[C@H](CCCCN)NC(=O)[C@@H]1CCCN1C(=O)[C@H](C)N)C(C)C)C(C)C)C(=O)N[C@@H](CC(C)C)C(=O)NC1(C)CCCCCCC=CCCCC(C)(C(=O)N[C@@H](C)C(N)=O)NC(=O)[C@H](CC(C)C)NC(=O)[C@H](Cc2ccc(O)cc2)NC(=O)[C@H](CCC(=O)O)NC(=O)[C@H](CC(C)C)NC(=O)[C@H](C)NC(=O)[C@H](CCCCN)NC1=O (stereo partly shown) [IDP-LS17, APKVVILXKALEYLXA] (H-APKVVIL[X1]KALEYL[ξαMeNle(6-ylidene)]A-NH2; staple 8-15 (inferred); N-terminus and C-terminus assumed) | > 100 | > 100 | ~10 | – | ~16 | – | – | – | –
RRRRRRRSKAPKVVILSKALEYLQA-NH2 [IDP-LLCb01] | – | – | – | – | – | showed anti-cancer activity | ~5 | ~2.5 | ~5
CC(C)C[C@@H]1NC(=O)[C@H](C)NC(=O)[C@H](CC(C)C)NC(=O)[C@H](Cc2ccccc2)NC(=O)C(C)(NC(=O)[C@H](CO)NC(=O)[C@H](CCCNC(=N)N)NC(=O)[C@H](CC(C)C)NC(=O)[C@H](CC(=O)O)NC(=O)[C@H](CC(N)=O)NC(=O)[C@H](CCCNC(=N)N)NC(=O)[C@H](CCCNC(=N)N)NC(=O)[C@H](CCCCN)NC(=O)[C@@H](N)CCCNC(=N)N)CCCCCCC=CCCCC(C)(C(N)=O)NC(=O)[C@H](CC(=O)O)NC(=O)[C@H](CCCNC(=N)N)NC1=O (stereo partly shown) [IDP-LS15, RKRRNDLRSXFLALRDX] (H-RKRRNDLRS[X1]FLALRD[ξαMeNle(6-ylidene)]-NH2; staple 10-17 (inferred); N-terminus and C-terminus assumed) | > 100 | > 100 | ~7 | – | ~8 | – | – | – | –
